In ChEMBL document CHEMBL5625183, “Discovery of a novel dual-target inhibitor of CDK12 and PARP1 that induces synthetic lethality for treatment of triple-negative breast cancer” (Eur J Med Chem, 2023):
Calls of active or inactive are those of the source. The calls are words filed in the database; no cut-off is given here.

Legend:
[1] = Tmax in Sprague-Dawley rat at 1 mg/kg, iv measured upto 24 hrs by LC-MS/MS analysis; assay type: ADME, organism-based; conditions: in vivo
[2] = target: Cyclin-dependent kinase 5 (Homo sapiens, UniProt Q00535); experiment: Inhibition of CDK5 (unknown origin) at 1 uM relative to control
Cyclin-dependent kinase 5, sequence (Q00535 whole entry, looked up): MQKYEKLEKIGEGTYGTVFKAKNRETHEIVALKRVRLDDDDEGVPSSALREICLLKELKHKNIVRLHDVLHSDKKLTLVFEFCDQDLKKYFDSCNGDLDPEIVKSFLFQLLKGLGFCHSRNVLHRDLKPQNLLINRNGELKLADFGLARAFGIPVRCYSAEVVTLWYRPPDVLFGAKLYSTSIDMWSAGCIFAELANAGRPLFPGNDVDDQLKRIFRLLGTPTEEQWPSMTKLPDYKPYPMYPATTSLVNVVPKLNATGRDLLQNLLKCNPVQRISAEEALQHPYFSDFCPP

[3] = MRT (0 to infinity) in Sprague-Dawley rat at 10 mg/kg, po measured upto 24 hrs by LC-MS/MS analysis; assay type: ADME, organism-based; conditions: in vivo
MCF-10A = experiment: Cytotoxicity against human MCF-10A cells assessed reduction in cell viability incubated for 24 hrs by MTT assay; assay type: toxicity, cell-based
MDA-MB-436 [4] = experiment: Induction of cell cycle arrest in human MDA-MB-436 cells assessed as accumulation of cells at G1 phase at 20 uM measured after 24 hrs by PI staining based cytometry analysis (reference value: 72.04%); assay type: functional
MDA-MB-468 [5] = experiment: Induction of apoptosis in human MDA-MB-468 cells assessed as upregulation of Bax expression incubated for 24 hrs; assay type: functional, cell-based; conditions: dose 5-20 µM
[6] = AUC (0 to t) in Sprague-Dawley rat at 1 mg/kg, iv measured upto 24 hrs by LC-MS/MS analysis; assay type: ADME, organism-based; conditions: in vivo
[7] = target: Cyclin-dependent kinase 2 (Homo sapiens, UniProt P24941); experiment: Inhibition of CDK2 (unknown origin) at 1 uM relative to control
MDA-MB-231 [8] = experiment: Antiproliferative activity against human MDA-MB-231 cells transfected with wild type CDK12 and PARP1 G863A mutant incubated for 24 hrs by MTT assay; assay type: functional, cell-based
MDA-MB-436 [9] = experiment: Induction of cell cycle arrest in human MDA-MB-436 cells assessed as accumulation of cells at G2 phase at 10 uM measured after 24 hrs by PI staining based cytometry analysis (reference value: 2.54%); assay type: functional
MDA-MB-231 [10] = experiment: Antitumor activity against human MDA-MB-231 cells xenografted in ip dosed BALB/c mouse assessed as downregulation of MMP-2 level administered once daily for 16 days; assay type: functional, organism-based; conditions: dose 20-80 mg/kg, time 16.0 day
MDA-MB-468 [11] = experiment: Inhibition of cell migration in human MDA-MB-468 cells assessed as upregulation of E-cadherin level by measuring fluorescence intensity at 10 uM incubated for 24 hrs by confocal microscopic analysis; assay type: functional, cell-based
MDA-MB-231 [12] = experiment: Induction of apoptosis in human MDA-MB-231 cells assessed as upregulation of Bax expression incubated for 24 hrs; assay type: functional, cell-based; conditions: dose 5-20 µM
Mus musculus = experiment: In-vivo induction of DNA damage in ip dosed BALB/c mouse assessed as upregulation of gamma-H2AX level in tumor administered once daily for 16 days by Western blot analysis; assay type: functional, organism-based; conditions: dose 20-80 mg/kg, time 16.0 day
MDA-MB-231 [13] = experiment: […] DNA repair in human MDA-MB-231 cells assessed as […] formation at 10 uM incubated for 24 hrs by confocal laser scanning microscopic analysis; assay type: functional, cell-based
[14] = target: Cyclin-dependent kinase 1 (Homo sapiens, UniProt P06493); experiment: Inhibition of CDK1 (unknown origin)
Cyclin-dependent kinase 1, sequence (P06493 whole entry): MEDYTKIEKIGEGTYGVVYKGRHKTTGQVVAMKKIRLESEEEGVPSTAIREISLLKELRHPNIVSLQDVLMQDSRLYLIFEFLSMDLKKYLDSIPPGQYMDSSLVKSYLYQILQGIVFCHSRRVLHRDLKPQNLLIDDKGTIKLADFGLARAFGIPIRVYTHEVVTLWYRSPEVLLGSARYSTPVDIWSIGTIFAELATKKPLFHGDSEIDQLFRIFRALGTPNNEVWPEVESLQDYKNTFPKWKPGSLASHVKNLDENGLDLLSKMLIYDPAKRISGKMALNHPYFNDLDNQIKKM

MDA-MB-231 [15] = experiment: Antiproliferative activity against human MDA-MB-231 cells assessed as inhibition of cell growth incubated for 24 hrs by MTT assay; assay type: functional, cell-based; conditions: MDA-MB-231, 24 h

SMILES: NC(=O)c1cccc2[nH]c(NC(=O)c3cccc(C(=O)N4CCC(Nc5ncc(I)cn5)CC4)c3)nc12
- Tmax [1]: 4.8 min
- inhibition [2]: > 60%
- MRT inf [3]: 4.76 h
- Activity (MCF-10A): Non-Toxic
- Activity (MDA-MB-436 [4]): 63.76%
- Activity (MDA-MB-468 [5]): Dose-Dependent Effect
- AUC(0-t) at 24 h [6]: 1250 ng·h/mL
- inhibition [7]: > 60%
- Activity (MDA-MB-231 [8]): Active
- Activity (MDA-MB-436 [9]): 7.35%
- Activity (MDA-MB-231 [10]): Active
- inhibition (MDA-MB-468 [11]): Active
- Activity (MDA-MB-231 [12]): Dose-Dependent Effect
- Activity (Mus musculus): Active
- Activity (MDA-MB-231 [13]): Active
- IC50 [14]: 517 nM
- IC50 (MDA-MB-231 [15]): 8.5 µM
